Assay results from US20240423992A1, “BIOMARKERS FOR TREATING LIVER DISORDERS WITH THR-B AGONISTS AND RELATED USES” (Madrigal Pharmaceuticals, Inc., priority 2023, published 2024).

Test system: patients with Nonalcoholic Steatohepatitis
Test: Phase 3 trial in Nonalcoholic Steatohepatitis (Example 2): thyroid hormone levels
Type: in vivo, human
Method: A randomized, double-blind, placebo-controlled Phase 3 trial was conducted. Patients were randomly assigned to receive resmetirom 80 mg, resmetirom 100 mg, or placebo administered orally once daily. Screening biopsy results were used as baseline for histologic variables and a second biopsy was performed at Week 52.

[1] = Resmetirom 80 mg, Week 52, not on thyroxine
[2] = Resmetirom 80 mg, Week 52, thyroxine-treated
[3] = Resmetirom 100 mg, Week 52, not on thyroxine
[4] = Resmetirom 100 mg, Week 52, thyroxine-treated
[5] = independent of thyroxine replacement

Structure (SMILES): CC(C)c1cc(Oc2c(Cl)cc(-n3nc(C#N)c(=O)[nH]c3=O)cc2Cl)n[nH]c1=O [Resmetirom, 2-[3,5-dichloro-4-[(6-oxo-5-propan-2-yl-1H-pyridazin-3-yl)oxy]phenyl]-3,5-dioxo-1,2,4-triazine-6-carbonitrile]
- FT3/rT3 CFB, LS Mean Difference from PBO (Resmetirom 80 mg, Week 52): 0.06
- FT3/rT3 LS Mean CFB (SE) (Resmetirom 80 mg, Week 52): 0.06 (0.004)
- FT3 CFB, LS Mean Difference from PBO (Resmetirom 80 mg, Week 52): 0.02 ng/L
- FT3 LS Mean CFB (SE) (Resmetirom 80 mg, Week 52): −0.01 (0.030) ng/L
- FT4 % CFB, LS Mean Difference from PBO (Resmetirom 80 mg, Week 52): −16.6%
- FT4 CFB, LS Mean Difference from PBO (Resmetirom 80 mg, Week 52): -0.19 ng/dL
- FT4 LS Mean % CFB (SE) (Resmetirom 80 mg, Week 52): −13.9 (0.96) %
- FT4 LS Mean CFB (SE) (Resmetirom 80 mg, Week 52): −0.17 (0.011) ng/dL
- TBG CFB, LS Mean Difference from PBO (Resmetirom 80 mg, Week 52): -1.9 mg/L
- TBG LS Mean CFB (SE) (Resmetirom 80 mg, Week 52): −0.32 (0.45) mg/L
- TSH CFB, LS Mean Difference from PBO (Resmetirom 80 mg, Week 52): −0.18 mIU/L
- TSH LS Mean CFB (SE) (Resmetirom 80 mg, Week 52): −0.28 (0.059) mIU/L
- rT3 CFB, LS Mean Difference from PBO (Resmetirom 80 mg, Week 52): -4.73 ng/dL
- rT3 LS Mean CFB (SE) (Resmetirom 80 mg, Week 52): −4.6 (0.31) ng/dL
- FT3/rT3 CFB, LS Mean Difference from PBO [1]: 0.06
- FT3/rT3 LS Mean CFB (SE) [1]: 0.06 (0.005)
- FT3 CFB, LS Mean Difference from PBO [1]: 0.01 ng/L
- FT3 LS Mean CFB (SE) [1]: −0.01 (0.032) ng/L
- FT4 % CFB, LS Mean Difference from PBO [1]: −16.3%
- FT4 CFB, LS Mean Difference from PBO [1]: -0.18 ng/dL
- FT4 LS Mean % CFB (SE) [1]: −13.8 (0.97) %
- FT4 LS Mean CFB (SE) [1]: −0.16 (0.011) ng/dL
- TBG CFB, LS Mean Difference from PBO [1]: -1.8 mg/L
- TBG LS Mean CFB (SE) [1]: −0.19 (0.47) mg/L
- TSH CFB, LS Mean Difference from PBO [1]: −0.15 mIU/L
- TSH LS Mean CFB (SE) [1]: −0.23 (0.056) mIU/L
- rT3 CFB, LS Mean Difference from PBO [1]: -4.5 ng/dL
- rT3 LS Mean CFB (SE) [1]: −4.5 (0.33) ng/dL
- FT3/rT3 CFB, LS Mean Difference from PBO [2]: 0.06
- FT3/rT3 LS Mean CFB (SE) [2]: 0.05 (0.011)
- FT3 CFB, LS Mean Difference from PBO [2]: 0.05 ng/L
- FT3 LS Mean CFB (SE) [2]: 0.04 (0.089) ng/L
- FT4 % CFB, LS Mean Difference from PBO [2]: −17.9%
- FT4 CFB, LS Mean Difference from PBO [2]: -0.21 ng/dL
- FT4 LS Mean % CFB (SE) [2]: −14.0 (3.6) %
- FT4 LS Mean CFB (SE) [2]: −0.18 (0.041) ng/dL
- TBG CFB, LS Mean Difference from PBO [2]: -2.6 mg/L
- TBG LS Mean CFB (SE) [2]: −1.1 (1.4) mg/L
- TSH CFB, LS Mean Difference from PBO [2]: −0.41 mIU/L
- TSH LS Mean CFB (SE) [2]: −0.63 (0.27) mIU/L
- rT3 CFB, LS Mean Difference from PBO [2]: -5.1 ng/dL
- rT3 LS Mean CFB (SE) [2]: −5.1 (0.94) ng/dL
- FT3/rT3 CFB, LS Mean Difference from PBO (Resmetirom 100 mg, Week 52): 0.07
- FT3/rT3 LS Mean CFB (SE) (Resmetirom 100 mg, Week 52): 0.06 (0.004)
- FT3 CFB, LS Mean Difference from PBO (Resmetirom 100 mg, Week 52): -0.05 ng/L
- FT3 LS Mean CFB (SE) (Resmetirom 100 mg, Week 52): −0.08 (0.031) ng/L
- FT4 % CFB, LS Mean Difference from PBO (Resmetirom 100 mg, Week 52): −20.7%
- FT4 CFB, LS Mean Difference from PBO (Resmetirom 100 mg, Week 52): -0.24 ng/dL
- FT4 LS Mean % CFB (SE) (Resmetirom 100 mg, Week 52): −18.1 (0.97) %
- FT4 LS Mean CFB (SE) (Resmetirom 100 mg, Week 52): −0.22 (0.011) ng/dL
- TBG CFB, LS Mean Difference from PBO (Resmetirom 100 mg, Week 52): -2.2 mg/L
- TBG LS Mean CFB (SE) (Resmetirom 100 mg, Week 52): −0.60 (0.45) mg/L
- TSH CFB, LS Mean Difference from PBO (Resmetirom 100 mg, Week 52): −0.10 mIU/L
- TSH LS Mean CFB (SE) (Resmetirom 100 mg, Week 52): −0.20 (0.060) mIU/L
- rT3 CFB, LS Mean Difference from PBO (Resmetirom 100 mg, Week 52): -5.2 ng/dL
- rT3 LS Mean CFB (SE) (Resmetirom 100 mg, Week 52): −5.1 (0.32) ng/dL
- FT3/rT3 CFB, LS Mean Difference from PBO [3]: 0.07
- FT3/rT3 LS Mean CFB (SE) [3]: 0.06 (0.005)
- FT3 CFB, LS Mean Difference from PBO [3]: -0.06 ng/L
- FT3 LS Mean CFB (SE) [3]: −0.08 (0.033) ng/L
- FT4 % CFB, LS Mean Difference from PBO [3]: −20.0%
- FT4 CFB, LS Mean Difference from PBO [3]: -0.23 ng/dL
- FT4 LS Mean % CFB (SE) [3]: −17.6 (1.0) %
- FT4 LS Mean CFB (SE) [3]: −0.21 (0.011) ng/dL
- TBG CFB, LS Mean Difference from PBO [3]: -1.8 mg/L
- TBG LS Mean CFB (SE) [3]: −0.21 (0.49) mg/L
- TSH CFB, LS Mean Difference from PBO [3]: −0.12 mIU/L
- TSH LS Mean CFB (SE) [3]: −0.20 (0.058) mIU/L
- rT3 CFB, LS Mean Difference from PBO [3]: -5.1 ng/dL
- rT3 LS Mean CFB (SE) [3]: −4.9 (0.34) ng/dL
- FT3/rT3 CFB, LS Mean Difference from PBO [4]: 0.06
- FT3/rT3 LS Mean CFB (SE) [4]: 0.06 (0.010)
- FT3 CFB, LS Mean Difference from PBO [4]: -0.01 ng/L
- FT3 LS Mean CFB (SE) [4]: −0.03 (0.081) ng/L
- FT4 % CFB, LS Mean Difference from PBO [4]: −24.4%
- FT4 CFB, LS Mean Difference from PBO [4]: -0.29 ng/dL
- FT4 LS Mean % CFB (SE) [4]: −20.6 (3.3) %
- FT4 LS Mean CFB (SE) [4]: −0.26 (0.037) ng/dL
- TBG CFB, LS Mean Difference from PBO [4]: -4.6 mg/L
- TBG LS Mean CFB (SE) [4]: −3.1 (1.3) mg/L
- TSH CFB, LS Mean Difference from PBO [4]: 0.09 mIU/L
- TSH LS Mean CFB (SE) [4]: −0.13 (0.25) mIU/L
- rT3 CFB, LS Mean Difference from PBO [4]: -6.3 ng/dL
- rT3 LS Mean CFB (SE) [4]: −6.3 (0.85) ng/dL
- Thyroid hormone indices (in vivo): not clinically impacted
- effect on free triiodothyronine (FT3) [5]: no effect
- effect on thyroid-stimulating hormone (TSH) [5]: no effect
- reduction of free thyroxine (FT4) (resmetirom groups): 16-19%
